As a reminder, the DC50 is the concentration at which degradation of the target reaches its halfway point.

In the assay the target is T1, SHP2 (Homo sapiens, UniProt Q06124).
T1 construct: endogenous in cells; host or cells: MV 411
T1 sequence (Q06124 1-593): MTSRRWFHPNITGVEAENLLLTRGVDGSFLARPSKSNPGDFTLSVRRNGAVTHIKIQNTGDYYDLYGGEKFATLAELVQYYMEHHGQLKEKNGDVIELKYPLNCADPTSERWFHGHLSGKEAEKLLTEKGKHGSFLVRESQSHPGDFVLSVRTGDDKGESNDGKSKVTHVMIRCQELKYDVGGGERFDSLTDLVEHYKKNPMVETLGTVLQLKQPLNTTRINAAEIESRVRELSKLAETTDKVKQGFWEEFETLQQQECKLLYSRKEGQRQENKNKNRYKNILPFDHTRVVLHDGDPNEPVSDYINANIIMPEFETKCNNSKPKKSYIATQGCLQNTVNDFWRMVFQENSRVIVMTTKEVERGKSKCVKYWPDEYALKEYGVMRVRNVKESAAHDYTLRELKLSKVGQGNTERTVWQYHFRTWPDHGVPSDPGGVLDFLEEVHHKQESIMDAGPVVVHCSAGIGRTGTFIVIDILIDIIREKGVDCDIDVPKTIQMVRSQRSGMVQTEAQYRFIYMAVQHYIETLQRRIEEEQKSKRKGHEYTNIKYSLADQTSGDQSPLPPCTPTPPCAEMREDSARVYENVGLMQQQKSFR
Kind of assay: SHP2 degradation in MV 411 cells by Western blot (median degradation concentration). The class given is cell-based. To be noted: 24 hours with compound, SHP-2 antibody Western blot, concentration of the median degradation from exposure gray scale. An excerpt: Reagent: complete DMEM medium, Gibco products. Fetal bovine serum, manufactured byThermoFisher. Trypsin, manufactured byThermoFisher. The SHP-2 antibody is produced by CST. Cell line, MV 411, the blast cells of patients with bi-phenotypic B-myelomonocytic leukemia, was established by Rovera. Measuring method: took the cells growing in the logarithmic phase, collected and suspended the cells in DMEM containing 10% fetal calf serum, gently blowed and beated the cells into single cell suspension by using a pipette, and counted the living cells under a microscope. […] Then cultured for 24 hours. All cells were collected and washed with PBS, lysed with RIPA lysate and collected into a 1.7 ml tube. […] metal bath for 5 minutes to fully denature the protein. 100V constant voltage electrophoresis after Western condensation and loading, stopped when bromophenol blue band reached the end point. The cellulose acetate membrane is transferred by a wet method, 45 minutes at a constant flow of 300-500 mA, 5% BSA is used for blocking for 1-2 hours at room temperature. Primary antibody of 1:500-1:8000 were used for incubation at 25° C. for 40 minutes and then washed three times. Secondary antibody was used for incubation for 15-40 min at room temperature. The proteins were detected using ultrasensitive ECL luminophores such as […], using an X-Ray film automatic developing machine. The concentration of the median degradation was calculated by exposure gray scale.

As for `CCOc1cc2oc(-c3ccc(NCCOCCOCCOCCOc4cccc5c4C(=O)N(C4CCC(=O)NC4=O)C5=O)cc3Cl)cc(=O)c2cc1-c1cccc(CO)c1` (centres unmarked) [Compound 11], the DC50 was found to be 50 nM.

On to `CCOc1cc2oc(-c3ccc(NCCOCCOCCOCCOc4cccc5c4C(=O)N(C4CCC(=O)NC4=O)C5=O)cc3Cl)cc(=O)c2cc1-c1ccc2c(c1)CCC2` (centres unmarked) [Compound 12], for which the DC50 came out at 920 nM.

In the case of `CCOc1cc2oc(-c3ccc(NCCOCCOCCOCCOc4cccc5c4C(=O)N(C4CCC(=O)NC4=O)C5=O)cc3Cl)cc(=O)c2cc1-c1cc(C=O)ccc1F` (centres unmarked) [Compound 13], the DC50 was found to be 50 nM.

As to `CCOc1cc2oc(-c3ccc(NCCOCCOCCOCCOc4cccc5c4C(=O)N(C4CCC(=O)NC4=O)C5=O)cc3Cl)cc(=O)c2cc1-c1cccc(C(C)=O)c1` (centres unmarked) [Compound 14], the DC50 was 25 nM.

For the compound `CCOc1cc2oc(-c3ccc(NCCOCCOCCOCCOc4cccc5c4C(=O)N(C4CCC(=O)NC4=O)C5=O)cc3Cl)cc(=O)c2cc1-c1ccc(OC)cc1F` (centres unmarked) [Compound 15], the DC50 was 250 nM.

`CCOc1cc2oc(-c3ccc(NCCOCCOCCOCCOc4cccc5c4C(=O)N(C4CCC(=O)NC4=O)C5=O)cc3Cl)cc(=O)c2cc1-c1cccc(C(N)=O)c1` (centres unmarked) [Compound 16]: the DC50 worked out at 250 nM.

In the case of `CCOc1cc2oc(-c3ccc(NCCOCCOCCOCCOc4cccc5c4C(=O)N(C4CCC(=O)NC4=O)C5=O)cc3Cl)cc(=O)c2cc1-c1cc(F)cc(C=O)c1` (centres unmarked) [Compound 17], the DC50 stood at 250 nM.

Consider `CCOc1cc2oc(-c3ccc(NCCOCCOCCOCCOc4cccc5c4C(=O)N(C4CCC(=O)NC4=O)C5=O)cc3Cl)cc(=O)c2cc1-c1cccc(C=O)c1` (centres unmarked) [Compound 18], for which the DC50 was above 1000 nM.

As for `CCOc1cc2oc(-c3ccc(OCCOCCOCCOCCOc4cccc5c4C(=O)N(C4CCC(=O)NC4=O)C5=O)cc3Cl)cc(=O)c2cc1-c1cccc(N)c1` (centres unmarked) [Compound 26], the DC50 turned out to be 3500 nM.

On to `CCOc1cc2oc(-c3ccc(OCCOCCOCCOCCOc4cccc5c4C(=O)N(C4CCC(=O)NC4=O)C5=O)cc3Cl)cc(=O)c2cc1-c1cccc(C(=O)OC)c1F` (centres unmarked) [Compound 27], for which the DC50 was 2 nM.

As to `CCOc1cc2oc(-c3ccc(OCCOCCOCCOCCOc4cccc5c4C(=O)N(C4CCC(=O)NC4=O)C5=O)cc3Cl)cc(=O)c2cc1-c1ccc(S(C)(=O)=O)cc1F` (centres unmarked) [Compound 28], the half-maximal degradation concentration (DC50) is 110 nM.

On to `CCOc1cc2oc(-c3ccc(OCCOCCOCCOCCOc4cccc5c4C(=O)N(C4CCC(=O)NC4=O)C5=O)cc3Cl)cc(=O)c2cc1-c1cncc(C=O)c1` (centres unmarked) [Compound 29], for which the DC50 came to 15 nM.

Take `CCOc1cc2oc(-c3ccc(OCCOCCOCCOCCOc4cccc5c4C(=O)N(C4CCC(=O)NC4=O)C5=O)cc3Cl)cc(=O)c2cc1-c1cc(N)cc(C(=O)O)c1` (centres unmarked) [Compound 30]: the DC50 worked out at 2000 nM.

Regarding `CCOc1cc2oc(-c3ccc(OCCOCCOCCOCCOc4cccc5c4C(=O)N(C4CCC(=O)NC4=O)C5=O)cc3Cl)cc(=O)c2cc1-c1ccc2c(c1)COC2=O` (centres unmarked) [Compound 31], the DC50 was 300 nM.

With `CCOc1cc2oc(-c3ccc(OCCOCCOCCOCCOc4cccc5c4C(=O)N(C4CCC(=O)NC4=O)C5=O)cc3Cl)cc(=O)c2cc1-c1cc(N)cc(C(N)=O)c1` (centres unmarked) [Compound 32], the DC50 came out at 850 nM.

On to `CCOc1cc2oc(-c3ccc(OCCOCCOCCOCCOc4cccc5c4C(=O)N(C4CCC(=O)NC4=O)C5=O)cc3Cl)cc(=O)c2cc1-c1ccc(S(=O)(=O)N2CCOCC2)cc1F` (centres unmarked) [Compound 33], for which the DC50 was 3500 nM.

Take `CCOc1cc2oc(-c3ccc(OCCOCCOCCOCCOc4cccc5c4C(=O)N(C4CCC(=O)NC4=O)C5=O)cc3Cl)cc(=O)c2cc1-c1ccc(S(=O)(=O)N2CCOCC2)cc1` (centres unmarked) [Compound 34]: the DC50 was 42 nM.

Take `CCOc1cc2oc(-c3ccc(OCCOCCOCCOCCOc4ccc5c(c4)C(=O)N(C4CCC(=O)NC4=O)C5=O)cc3Cl)cc(=O)c2cc1-c1cc(C(C)=O)cc(C(N)=O)c1` (centres unmarked) [Compound 35]: the DC50 turned out to be 25 nM.

Regarding `CCOc1cc2oc(-c3ccc(NCCOCCOCCOCCOc4ccc5c(c4)C(=O)N(C4CCC(=O)NC4=O)C5=O)cc3Cl)cc(=O)c2cc1-c1cccc(C(C)=O)c1` (centres unmarked) [Compound 36], the DC50 was 20 nM.

For the compound `CCOc1cc2oc(-c3ccc(OCCOCCOCCOCCOc4cccc5c4C(=O)N(C4CCC(=O)NC4=O)C5=O)cc3Cl)cc(=O)c2cc1-c1cc(N)cc(C(=O)OC)c1` (centres unmarked) [Compound 40], the DC50 came to 750 nM.

On to `CCOC(=O)c1cncc(-c2cc3c(=O)cc(-c4ccc(OCCOCCOCCOCCOc5cccc6c5C(=O)N(C5CCC(=O)NC5=O)C6=O)cc4Cl)oc3cc2OCC)c1` (centres unmarked) [Compound 41], for which the DC50 stood at 1000 nM.

Consider `CCOc1cc2oc(-c3ccc(OCCOCCOCCOCCOc4cccc5c4C(=O)N(C4CCC(=O)NC4=O)C5=O)cc3Cl)cc(=O)c2cc1-c1cc(C)cc(C(N)=O)c1` (centres unmarked) [Compound 42], for which the DC50 was 750 nM.

In the case of `CCOc1cc2oc(-c3ccc(OCCOCCOCCOCCOc4cccc5c4C(=O)N(C4CCC(=O)NC4=O)C5=O)cc3Cl)cc(=O)c2cc1-c1cc(C(N)=O)cc(C(C)(C)C)c1` (centres unmarked) [Compound 43], the DC50 is above 250 nM.

With `CCOc1cc2oc(-c3ccc(OCCOCCOCCOCCOc4cccc5c4C(=O)N(C4CCC(=O)NC4=O)C5=O)cc3Cl)cc(=O)c2cc1-c1cc(C(N)=O)cc(C(F)(F)F)c1` (centres unmarked) [Compound 44], the DC50 stood at 750 nM.

As to `CCOc1cc2oc(-c3ccc(OCCOCCOCCOCCOc4cccc5c4C(=O)N(C4CCC(=O)NC4=O)C5=O)cc3Cl)cc(=O)c2cc1-c1ccccc1C(N)=O` (centres unmarked) [Compound 45], the DC50 is above 250 nM.

Consider `CCOc1cc2oc(-c3ccc(OCCOCCOCCOCCOc4cccc5c4C(=O)N(C4CCC(=O)NC4=O)C5=O)cc3Cl)cc(=O)c2cc1-c1cc(C(N)=O)ccc1O` (centres unmarked) [Compound 46], for which the DC50 amounted to 6 nM.

Consider `CCOc1cc2oc(-c3ccc(NCCOCCOCCOCCOc4cccc5c4C(=O)N(C4CCC(=O)NC4=O)C5=O)cc3Cl)cc(=O)c2cc1CN1CCC=C(n2c(=O)[nH]c3cc(NS(=O)(=O)C4CC4)ccc32)C1` (centres unmarked) [Compound 50], for which the DC50 was above 750 nM.

Regarding `CCOc1cc2oc(-c3ccc(NCCOCCOCCOCCOc4cccc5c4C(=O)N(C4CCC(=O)NC4=O)C5=O)cc3Cl)cc(=O)c2cc1CN1CCCC[C@@H]1C(N)=O` (some centres unmarked) [Compound 51], the DC50 is above 250 nM.

As for `CCOc1cc2oc(-c3ccc(NCCOCCOCCOCCOc4cccc5c4C(=O)N(C4CCC(=O)NC4=O)C5=O)cc3Cl)cc(=O)c2cc1COc1ccccc1C(N)=O` (centres unmarked) [Compound 52], the DC50 was above 250 nM.

With `CCOc1cc2oc(-c3ccc(NCCOCCOCCOCCOc4cccc5c4C(=O)N(C4CCC(=O)NC4=O)C5=O)cc3Cl)cc(=O)c2cc1CN1CCC[C@@H]1CO` (some centres unmarked) [Compound 53], the DC50 worked out at 5 nM.

On to `CCOc1cc2oc(-c3ccc(OCCOCCOCCOCCOc4cccc5c4C(=O)N(C4CCC(=O)NC4=O)C5=O)cc3Cl)cc(=O)c2cc1-c1cc(C(N)=O)cc(C2CCCCC2)c1` (centres unmarked) [Compound 54], for which the DC50 was above 250 nM.

`CCOc1cc2oc(-c3ccc(OCCOCCOCCOCCOc4cccc5c4C(=O)N(C4CCC(=O)NC4=O)C5=O)cc3Cl)cc(=O)c2cc1-c1cc(C(N)=O)cc(-c2ccccc2)c1` (centres unmarked) [Compound 55]: the DC50 was above 1000 nM.

Consider `CCOc1cc2oc(-c3ccc(OCCOCCOCCOCCOc4cccc5c4C(=O)N(C4CCC(=O)NC4=O)C5=O)cc3Cl)cc(=O)c2cc1-c1cc(C(N)=O)cc(-c2ccccn2)c1` (centres unmarked) [Compound 56], for which the DC50 is above 1000 nM.

In the case of `CCOc1cc2oc(-c3ccc(OCCOCCOCCOCCOc4cccc5c4C(=O)N(C4CCC(=O)NC4=O)C5=O)cc3Cl)cc(=O)c2cc1-c1cc(C(N)=O)cc(-c2cccnc2)c1` (centres unmarked) [Compound 57], the DC50 is above 1000 nM.

In the case of `CCOc1cc2oc(-c3ccc(OCCOCCOCCOCCOc4cccc5c4C(=O)N(C4CCC(=O)NC4=O)C5=O)cc3Cl)cc(=O)c2cc1-c1cc(C(N)=O)cc(-c2ccncc2)c1` (centres unmarked) [Compound 58], the DC50 turned out to be 500 nM.

Take `CCOc1cc2oc(-c3ccc(OCCOCCOCCOCCOc4cccc5c4C(=O)N(C4CCC(=O)NC4=O)C5=O)cc3Cl)cc(=O)c2cc1-c1cc(C(N)=O)cc(-c2ncc[nH]2)c1` (centres unmarked) [Compound 59]: the DC50 was above 750 nM.

As for `CCOc1cc2oc(-c3ccc(OCCOCCOCCOCCOc4cccc5c4C(=O)N(C4CCC(=O)NC4=O)C5=O)cc3Cl)cc(=O)c2cc1-c1cc(C(N)=O)cc(-n2ccnc2)c1` (centres unmarked) [Compound 60], the DC50 is above 250 nM.

With `CCOc1cc2oc(-c3ccc(OCCOCCOCCOCCOc4cccc5c4C(=O)N(C4CCC(=O)NC4=O)C5=O)cc3Cl)cc(=O)c2cc1-c1cc(C(N)=O)cc(-c2c[nH]cn2)c1` (centres unmarked) [Compound 61], the DC50 is above 250 nM.
